# Tested on: AH-1+CD8+ T-cells (tumor antigen-specific CD8+ T-cells)
# Experiment: Flow cytometry for tumor antigen-specific CD8+ T-cells in blood of CT26 tumor-bearing mice
# Format: in vivo, mouse
# Conditions: day 7 after UNO treatment
# Description: Preparation of cancer cells for injection—Mouse colon carcinoma CT26.WT cells (ATCC, Cat no. CRL-2638) suspended in Hanks' Balanced Salt Solution (HBSS) (Biological Industries, Israel), at a concentration of 5.0×10^6 cells/ml, were freshly prepared on the day of cancer model induction. Cells were grown to 70% confluency and were harvested using trypsin (Biological Industries, Israel), and counted using a cell counter device. The cells were then centrifuged at 1,200 rpm (241×g) for 8 minutes, and the pellet was re-suspended in ice cold HBSS at 5.0×10^6 in 1 ml (5.0×10^5 cells in 100 μl solution). Cell viability was >90% as determined by trypan blue staining prior to inoculation to mice. At the point of inoculation, cells were at passage 8 at most. […]
# UNO treatment—On the day of treatment, mice were anesthetized by an intra-peritoneal (i.p.) injection of 100 mg/kg ketamine and 10 mg/kg of xylazine hydrochloride solution. […] After treatment, all mice were warmed and closely monitored until complete recovery was observed. […]
# Flow cytometry for tumor antigen-specific CD8+ T-cells—On day 7 after the UNO treatment, 100 μl of peripheral blood was collected by submandibular bleeding from each mouse into tubes containing 0.5M EDTA PH 8.0. […] Data was analyzed using the FlowJo software.
compound,measurement,setting,value
"[N]=O [UNO, nitric oxide]",Systemic levels of AH-1+CD8+ T-cells vs untreated or naive mice,,higher
same,AH-1+CD8+ T-cells in the blood,"UNO 100,000 ppm 5 min, anti-mCTLA-4 5 mg/kg i.p. twice",detected in the blood of all mice

# Source: patent US20250339462A1, “CANCER TREATMENT USING ULTRA-HIGH CONCENTRATION GASEOUS NITRIC OXIDE AND A CHECKPOINT INHIBITOR” (Beyond Air, Inc., priority 2022, published 2025)
